Test results from patent publication US4871723A, “Method for treating psoriasis by externally administering to a patient a pharmaceutical composition containing active-type vitamin D” (priority 1984, dated 1989).
Like-named read-outs stand apart in the source and are kept apart here.

Legend:
psoriasis vulgaris = assay: therapeutic effect of ointment on psoriasis vulgaris of a person; type: in vivo; set-up: key to degree of severity: 4: very serious; 3: serious; 2: medium; 1: light; 0: disappeared
Method: (i) A suitable amount of 1α,24(R)-dihydroxycholecalciferol was dissolved in diisopropyl adipate, and the solution was uniformly mixed with white vaseline to form an ointment. The mixing ratio of diisopropyl adipate to white vaseline was always maintained at 1:4 by weight, and the concentration of 1α,24(R)-dihydroxycholecalciferol in the ointment was adjusted to 400 micrograms/30 mg, 40 micrograms/30 mg, and 4 micrograms/30 mg.
(ii) Each of the three ointment thus prepared was applied to the site of psoriasis vulgaris of a person, and their therapeutic effects were evaluated. Specifically, ±he ointment having a 1α,24(R)-(OH)2 -D3 concentration of 400 micrograms/30 mg was applied twice daily each in an amount of 30 mg to psoriasis vulgaris at the lower part of the right femur (diseased part A). The ointment having a 1α,24(R)-(OH)2 -D3 concentration of 40 micrograms/[…] was applied twice a day each in an amount of 30 mg to psoriasis vulgaris at the lower part of the left femur (diseased part B). The ointment having a 1α,24(R)-(OH concentration of 4 micrograms/30 mg was applied twice a day each in an amount of 30 mg to psoriasis vulgaris at the middle part of the right femur (the diseased part C).
The therapeutic effects were evaluated on a scale of 5 grades as follows: […]

psoriasis = conditions: clinical data, cited from earlier work
[1] = amount of vitamin D3 in femoral muscles of rats 2 hours after ointment application or oral administration; type: in vivo, male Wistar-strain rats
Method: (ii) Hair was removed from the femoral parts of five male Wistar-strain rats (body weight 220 to 230 g), and 100 mg of the ointment prepared in (i) was well rubbed into the hair-removed part of each animal. Two hours later, the rats were sacrificed, and the skin at the ointment-administeredsite was carefully removed and the muscles inside were taken out.

[2] = control group, oral 0.5 microgram
[3] = ointment-applied group, 100 mg ointment (5 micrograms/g)

Amounts in the femoral muscles, 1st time (5 rats) [1, 2] | Amounts in the femoral muscles, 2nd time (5 rats) [1, 2] | Amounts in the femoral muscles, 3rd time (5 rats) [1, 2] | Amounts in the femoral muscles, 1st time (5 rats) [1, 3] | Amounts in the femoral muscles, 2nd time (5 rats) [1, 3] | Amounts in the femoral muscles, 3rd time (5 rats) [1, 3] | Compound | relapse of lesion (psoriasis vulgaris; after more than 30 days from stopping of drug application, diseased parts A to C) | therapeutic effect on psoriasis vulgaris (psoriasis vulgaris; external application, ointment) | improvement of diseased parts (psoriasis vulgaris; five days after beginning of treatment, diseased parts A to C (400, 40, 4 micrograms/30 mg, twice daily), original severity 4) | degree of severity (psoriasis vulgaris; ten days, all cases cured, diseased parts A to C (400, 40, 4 micrograms/30 mg, twice daily), original severity 4) | effectiveness for the treatment of psoriasis (psoriasis; external application) | effectiveness for the treatment of psoriasis (psoriasis; oral administration)
 |  |  |  |  |  | C=C1/C(=C\C=C2/CCC[C@]3(C)[C@@H]([C@H](C)CC[C@@H](O)C(C)C)CC[C@@H]23)C[C@@H](O)C[C@@H]1O [1α,24(R)-(OH)2 -D3, 1α,24(R)-dihydroxycholecalciferol] | no relapse of lesion was noted | good therapeutic effect | an improvement was observed in all cases | 0 |  | 
 |  |  |  |  |  | C=C1/C(=C\C=C2/CCC[C@]3(C)[C@@H]([C@H](C)CCCC(C)(C)O)CC[C@@H]23)C[C@@H](O)C[C@@H]1O [1α,25-(OH)2 --D3, 1α,25-dihydroxycholecalciferol] |  |  |  |  | effective | effective
103 | 98 | 126 | 441 | 607 | 588 | C=C1/C(=C\C=C2/CCC[C@]3(C)[C@@H]([C@H](C)CCCC(C)C)CC[C@@H]23)C[C@@H](O)C[C@@H]1O [Example 1α-OH--D3, 1α-hydroxycholecalciferol] |  |  |  |  |  | effective
